We go through 26 molecules from ChEMBL document CHEMBL4813928, “Targeted Isolation of Asperheptatides from a Coral-Derived Fungus Using LC-MS/MS-Based Molecular Networking and Antitubercular Activities of Modified Cinnamate Derivatives” (2021).

Converted amounts (≈) assume the structure as drawn. Square brackets hold non-standard residues; d marks the D form. Peptide text beside a SMILES is read from it.

For the first assay, the system named is Mycobacterium tuberculosis. Nature of the assay: Antitubercular activity against Mycobacterium tuberculosis H37Ra assessed as bacterial growth inhibition. Type of assay: functional.
Turning to `COc1ccc(/C=C/C(=O)OC[C@H]2NC(=O)[C@@H](C(C)C)NC(=O)[C@H](Cc3ccccc3)NC(=O)[C@@H](C(C)C)NC(=O)[C@@H](C)NC(=O)[C@H](CO)NC(=O)[C@@H](Cc3c[nH]c4ccccc34)NC2=O)cc1`, the MIC (commonly the lowest concentration that inhibits growth of the organism) was found to be 12.5 µM (≈ 11.7 µg/mL). On the same count and under the same terms, in the case of `CC(C)[C@H]1NC(=O)[C@H](Cc2ccccc2)NC(=O)[C@@H](C(C)C)NC(=O)[C@@H](C)NC(=O)[C@H](COC(=O)/C=C/c2ccccc2Cl)NC(=O)[C@@H](Cc2c[nH]c3ccccc23)NC(=O)[C@@H](COC(=O)/C=C/c2ccccc2Cl)NC1=O` it was 50 µM (≈ 55.3 µg/mL); in that of `Cc1ccccc1/C=C/C(=O)OC[C@@H]1NC(=O)[C@@H](Cc2c[nH]c3ccccc23)NC(=O)[C@@H](COC(=O)/C=C/c2ccccc2C)NC(=O)[C@@H](C(C)C)NC(=O)[C@H](Cc2ccccc2)NC(=O)[C@@H](C(C)C)NC(=O)[C@@H](C)NC1=O`, 12.5 µM (≈ 13.3 µg/mL); in that of `COc1ccc(/C=C/C(=O)OC[C@@H]2NC(=O)[C@@H](Cc3c[nH]c4ccccc34)NC(=O)[C@@H](COC(=O)/C=C/c3ccc(OC)c(OC)c3)NC(=O)[C@@H](C(C)C)NC(=O)[C@H](Cc3ccccc3)NC(=O)[C@@H](C(C)C)NC(=O)[C@@H](C)NC2=O)cc1OC`, 100 µM (≈ 116 µg/mL).

Consider `CC(C)[C@H]1NC(=O)[C@H](Cc2ccccc2)NC(=O)[C@@H](C(C)C)NC(=O)[C@@H](C)NC(=O)[C@H](CO)NC(=O)[C@@H](Cc2c[nH]c3ccccc23)NC(=O)[C@@H](COC(=O)/C=C/c2ccccc2)NC1=O`, for which the MIC was over 100 µM. The same measure, in the same setting: the same measure for `CC(C)[C@H]1NC(=O)[C@H](Cc2ccccc2)NC(=O)[C@@H](C(C)C)NC(=O)[C@@H](C)NC(=O)[C@H](CO)NC(=O)[C@@H](Cc2c[nH]c3ccccc23)NC(=O)[C@@H](COC(=O)/C=C/c2ccc(N(C)C)cc2)NC1=O`: 50 µM (≈ 47.5 µg/mL); for `COc1cc(Br)c(/C=C/C(=O)OC[C@H]2NC(=O)[C@@H](C(C)C)NC(=O)[C@H](Cc3ccccc3)NC(=O)[C@@H](C(C)C)NC(=O)[C@@H](C)NC(=O)[C@H](CO)NC(=O)[C@@H](Cc3c[nH]c4ccccc34)NC2=O)cc1OC`: 50 µM (≈ 52.3 µg/mL). Still for that read-out and setting: the same measure for `CC(C)[C@H]1NC(=O)[C@H](Cc2ccccc2)NC(=O)[C@@H](C(C)C)NC(=O)[C@@H](C)NC(=O)[C@H](COC(=O)/C=C/c2ccccc2)NC(=O)[C@@H](Cc2c[nH]c3ccccc23)NC(=O)[C@@H](COC(=O)/C=C/c2ccccc2)NC1=O`: over 100 µM; for `COc1cc(/C=C/C(=O)OC[C@@H]2NC(=O)[C@@H](Cc3c[nH]c4ccccc34)NC(=O)[C@@H](COC(=O)/C=C/c3ccc(OCc4ccccc4)c(OC)c3)NC(=O)[C@@H](C(C)C)NC(=O)[C@H](Cc3ccccc3)NC(=O)[C@@H](C(C)C)NC(=O)[C@@H](C)NC2=O)ccc1OCc1ccccc1`: 100 µM (≈ 131 µg/mL); for `CC(C)[C@H]1NC(=O)[C@H](Cc2ccccc2)NC(=O)[C@@H](C(C)C)NC(=O)[C@@H](C)NC(=O)[C@H](COC(=O)/C=C/c2ccc(N(C)C)cc2)NC(=O)[C@@H](Cc2c[nH]c3ccccc23)NC(=O)[C@@H](COC(=O)/C=C/c2ccc(N(C)C)cc2)NC1=O`: 50 µM (≈ 56.2 µg/mL).

Consider `CC(C)[C@H]1NC(=O)[C@H](Cc2ccccc2)NC(=O)[C@@H](C(C)C)NC(=O)[C@@H](C)NC(=O)[C@H](COC(=O)/C=C/c2ccc(F)cc2)NC(=O)[C@@H](Cc2c[nH]c3ccccc23)NC(=O)[C@@H](COC(=O)/C=C/c2ccc(F)cc2)NC1=O`, for which the MIC came to 50 µM (≈ 53.7 µg/mL). As to `CC(C)[C@H]1NC(=O)CNC(=O)[C@H](CO)NC(=O)[C@@H](Cc2c[nH]c3ccccc23)NC(=O)[C@@H](C)NC(=O)[C@@H](C(C)C)NC(=O)[C@H](Cc2ccccc2)NC1=O`, the MIC worked out at 100 µM (≈ 74.7 µg/mL). Turning to `CC(C)[C@H]1NC(=O)[C@H](Cc2ccccc2)NC(=O)[C@@H](C(C)C)NC(=O)[C@@H](C)NC(=O)[C@H](COC(=O)/C=C/c2ccc(F)c(F)c2)NC(=O)[C@@H](Cc2c[nH]c3ccccc23)NC(=O)[C@@H](COC(=O)/C=C/c2ccc(F)c(F)c2)NC1=O`, the MIC was found to be 12.5 µM (≈ 13.9 µg/mL). On the same count and under the same terms, in the case of `CC(C)[C@H]1NC(=O)[C@H](Cc2ccccc2)NC(=O)[C@@H](C(C)C)NC(=O)[C@@H](C)NC(=O)[C@H](COC(=O)/C=C/c2ccc(C(F)(F)F)cc2)NC(=O)[C@@H](Cc2c[nH]c3ccccc23)NC(=O)[C@@H](COC(=O)/C=C/c2ccc(C(F)(F)F)cc2)NC1=O` it was 100 µM (≈ 117 µg/mL); in that of `COc1cc(Br)c(/C=C/C(=O)OC[C@@H]2NC(=O)[C@@H](Cc3c[nH]c4ccccc34)NC(=O)[C@@H](COC(=O)/C=C/c3cc(OC)c(OC)cc3Br)NC(=O)[C@@H](C(C)C)NC(=O)[C@H](Cc3ccccc3)NC(=O)[C@@H](C(C)C)NC(=O)[C@@H](C)NC2=O)cc1OC`, 100 µM (≈ 132 µg/mL). Same read-out and setting: in the case of `COc1ccc(/C=C/C(=O)OC[C@@H]2NC(=O)[C@@H](Cc3c[nH]c4ccccc34)NC(=O)[C@@H](COC(=O)/C=C/c3ccc(OC)cc3)NC(=O)[C@@H](C(C)C)NC(=O)[C@H](Cc3ccccc3)NC(=O)[C@@H](C(C)C)NC(=O)[C@@H](C)NC2=O)cc1` it was 100 µM (≈ 110 µg/mL). As to `COc1cc(/C=C/C(=O)OC[C@H]2NC(=O)[C@@H](C(C)C)NC(=O)[C@H](Cc3ccccc3)NC(=O)[C@@H](C(C)C)NC(=O)[C@@H](C)NC(=O)[C@H](CO)NC(=O)[C@@H](Cc3c[nH]c4ccccc34)NC2=O)ccc1OCc1ccccc1`, the MIC amounted to 50 µM (≈ 52.2 µg/mL). Consider `CC(C)[C@H]1NC(=O)CNC(=O)[C@H](C)NC(=O)[C@@H](Cc2c[nH]c3ccccc23)NC(=O)[C@@H](CO)NC(=O)[C@@H](C(C)C)NC(=O)[C@H](Cc2ccccc2)NC1=O`, for which the MIC amounted to 100 µM (≈ 74.7 µg/mL).

In the case of `CC(C)[C@H]1NC(=O)[C@H](Cc2ccccc2)NC(=O)[C@@H](C(C)C)NC(=O)[C@@H](C)NC(=O)[C@H](COC(=O)/C=C/c2cccc(Cl)c2)NC(=O)[C@@H](Cc2c[nH]c3ccccc23)NC(=O)[C@@H](COC(=O)/C=C/c2cccc(Cl)c2)NC1=O`, the MIC stood at 100 µM (≈ 111 µg/mL). Consider `Cc1ccc(/C=C/C(=O)OC[C@@H]2NC(=O)[C@@H](Cc3c[nH]c4ccccc34)NC(=O)[C@@H](COC(=O)/C=C/c3ccc(C)cc3)NC(=O)[C@@H](C(C)C)NC(=O)[C@H](Cc3ccccc3)NC(=O)[C@@H](C(C)C)NC(=O)[C@@H](C)NC2=O)cc1`, for which the MIC came out at 12.5 µM (≈ 13.3 µg/mL). The same measure, in the same setting: the same measure for `CC(C)[C@H]1NC(=O)[C@H](Cc2ccccc2)NC(=O)[C@@H](C(C)C)NC(=O)[C@@H](C)NC(=O)[C@H](COC(=O)/C=C/c2ccc(Cl)cc2)NC(=O)[C@@H](Cc2c[nH]c3ccccc23)NC(=O)[C@@H](COC(=O)/C=C/c2ccc(Cl)cc2)NC1=O`: 50 µM (≈ 55.3 µg/mL); for `CC(C)[C@H]1NC(=O)[C@H](Cc2ccccc2)NC(=O)[C@@H](C(C)C)NC(=O)[C@@H](C)NC(=O)[C@H](C)NC(=O)[C@@H](Cc2c[nH]c3ccccc23)NC(=O)[C@@H](C)NC1=O` (cyclo([dV][dA][dW]A[dA][dV]F)): 100 µM (≈ 74.5 µg/mL). Regarding `CC(C)[C@H]1NC(=O)CNC(=O)[C@H](CO)NC(=O)[C@@H](Cc2c[nH]c3ccccc23)NC(=O)[C@@H](CO)NC(=O)[C@@H](C(C)C)NC(=O)[C@H](Cc2ccccc2)NC1=O` (cyclo([dV][dS][dW]SG[dV]F)), the minimal inhibitory concentration (MIC) is 100 µM (≈ 76.3 µg/mL). On the same count and under the same terms, in the case of `CC(C)[C@H]1NC(=O)[C@H](Cc2ccccc2)NC(=O)[C@@H](C(C)C)NC(=O)[C@@H](C)NC(=O)[C@H](CO)NC(=O)[C@@H](Cc2c[nH]c3ccccc23)NC(=O)[C@@H](CO)NC1=O` (cyclo([dV][dS][dW]S[dA][dV]F)) it was over 100 µM; in that of `NNC(=O)c1ccncc1` [ISONIAZID], 0.0125 µM (≈ 0.00171 µg/mL); in that of `CO[C@H]1/C=C/O[C@@]2(C)Oc3c(C)c(O)c4c(O)c(c(/C=N/N5CCN(C)CC5)c(O)c4c3C2=O)NC(=O)/C(C)=C\C=C\[C@H](C)[C@H](O)[C@@H](C)[C@@H](O)[C@@H](C)[C@H](OC(C)=O)[C@@H]1C` [RIFAMPIN], 0.00625 µM (≈ 0.00514 µg/mL).

For another assay, the system named is Mycobacterium tuberculosis. Nature of the assay: Antitubercular activity against Mycobacterium tuberculosis H37Ra assessed as bacterial growth inhibition relative to parent compound. The format is functional.
With `COc1ccc(/C=C/C(=O)OC[C@H]2NC(=O)[C@@H](C(C)C)NC(=O)[C@H](Cc3ccccc3)NC(=O)[C@@H](C(C)C)NC(=O)[C@@H](C)NC(=O)[C@H](CO)NC(=O)[C@@H](Cc3c[nH]c4ccccc34)NC2=O)cc1`, the “fold change (FC)” value was 10. Still for that read-out and setting: in the case of `Cc1ccccc1/C=C/C(=O)OC[C@@H]1NC(=O)[C@@H](Cc2c[nH]c3ccccc23)NC(=O)[C@@H](COC(=O)/C=C/c2ccccc2C)NC(=O)[C@@H](C(C)C)NC(=O)[C@H](Cc2ccccc2)NC(=O)[C@@H](C(C)C)NC(=O)[C@@H](C)NC1=O` it was 10; in that of `CC(C)[C@H]1NC(=O)[C@H](Cc2ccccc2)NC(=O)[C@@H](C(C)C)NC(=O)[C@@H](C)NC(=O)[C@H](COC(=O)/C=C/c2ccc(F)c(F)c2)NC(=O)[C@@H](Cc2c[nH]c3ccccc23)NC(=O)[C@@H](COC(=O)/C=C/c2ccc(F)c(F)c2)NC1=O`, 10. Same read-out and setting: the same measure for `Cc1ccc(/C=C/C(=O)OC[C@@H]2NC(=O)[C@@H](Cc3c[nH]c4ccccc34)NC(=O)[C@@H](COC(=O)/C=C/c3ccc(C)cc3)NC(=O)[C@@H](C(C)C)NC(=O)[C@H](Cc3ccccc3)NC(=O)[C@@H](C(C)C)NC(=O)[C@@H](C)NC2=O)cc1`: 10.
